From patent publication US11261175B2 (priority 2017, dated 2022)

Columns and labels:
Type in all cases: cell-based
[1] = tested on: JFH5a-Rluc-ad34 virus (HCV GT-2a); assay: Anti-HCV activity using HCVcc (JFH5a-Rluc-ad34 virus) in Huh 7.5.1 cells, Renilla luciferase readout; conditions: Hepatitis C virus, GT2A, Huh-7.5.1, 72 h, read-out: HCV wt. GT-2a
Description: <Experimental Example 1> Measurement of Anti-HCV Activity of Compounds of Examples Using HCVcc
Step 1: Cell Line and Cell Culture
Huh 7.5.1 cells were grown in Dulbecco's Modified Eagle's medium (DMEM; Gibco) supplemented with antibiotics (100 U/mL penicillin, 10 μg/mL streptomycin) and 10% heat-inactivated fetal bovine serum (ΔFBS; PEAK) in a CO2 incubator at 37° C. with […].
Huh7.5.1 cells were transfected with in vitro transcription RNA of JFH5a-Rluc-ad34, a derivative of JFH1 with adaptive mutations in E2 and p7 regions, by electroporation. JFH5a-Rluc-ad34 virus contains Renilla luciferase (Rluc), which is convenient for virus proliferation assay. The cell culture medium containing HCV was collected 3-5 days after the electroporation and then filtered through a […] pore size filter.
Step 3: Antiviral Activity Test Using Infectious HCV Particles
Huh 7.5.1 cells were inoculated with JFH5a-Rluc-ad34 virus and incubated for 4 hours. Four hours after the virus inoculation, the Huh7.5.1 cells infected with HCV were cultured in the medium containing the compound of examples serially diluted. Three days later, the cells were harvested and the intracellular luciferase activity was measured using Renilla luciferase assay system (Promega). Finally, the luciferase activity was normalized with those obtained from the negative control cells (mock-treated cells).

[2] = tested on: HCV genotype 1b replicon with NS5A Y93H mutation; assay: Transiently transfected assay of genotype 1b resistance mutant RNA Y93H; conditions: Hepatitis C virus, Huh-7.5.1, 72 h, read-out: HCV Mutation Y93H
Excerpt: (§1) <Experimental Example 3> Transiently Transfected Assay of Genotype 1b Resistance Mutant RNAs
(§2) Replicon genomes substituted with Y93H, L31V and L31V+Y93H (double mutant), the resistance mutants to Daclatasvir with mutations at the NS5A protein domain 1.
(§3) These HCV resistance mutant genomes were linearized with scal restriction enzyme, and then the mutated HCV RNA was synthesized through in vitro transcription. Huh 7.5.1 cells were individually electroporated with HCV RNA with resistant mutations and plated in a 12 well plate. After 4 hours, Huh7.5.1 cells were seeded in DMEM containing the compounds of examples serially diluted for 3 days. Three days later, the cells were harvested and the intracellular luciferase activity was measured. The luciferase activity was normalized with those obtained from the negative control cells (mock-treated cells).

[3] = tested on: HCV genotype 1b replicon with NS5A L31V+Y93H (double mutant); assay: Transiently transfected assay of genotype 1b resistance mutant RNA L31V+Y93H (double mutant); conditions: Hepatitis C virus, Huh-7.5.1, 72 h, read-out: HCV Mutation L31V + Y93H
Excerpt: as §1, §2, §3

[4] = tested on: HCV genotype 1b replicon with NS5A L31V mutation; assay: Transiently transfected assay of genotype 1b resistance mutant RNA L31V; conditions: Hepatitis C virus, Huh-7.5.1, 72 h, read-out: HCV Mutation L31V
Excerpt: as §1, §2, §3

[5] = tested on: HCV replicon S52-Feo (genotype 3a); assay: Anti-HCV activity using HCV replicon S52-Feo (genotype 3a) in Huh 7.5.1 cells, luciferase readout; conditions: Hepatitis C virus, 72 h; Huh 7.5.1 cells with S52-Feo replicon, 3 days, firefly luciferase; read-out: HCV wt. GT-3a
[6] = tested on: HCV replicon NK5.1-Gluc (genotype 1b); assay: Anti-HCV activity using HCV replicon NK5.1-Gluc (genotype 1b) in Huh 7.5.1 cells, luciferase readout; conditions: Hepatitis C virus, 72 h; Huh 7.5.1 cells with NK5.1-Gluc replicon, 3 days, Gaussia luciferase; read-out: HCV wt. GT-1b

CCCC1(CCC)c2cc(NC(=O)[C@@H]3CCCN3C(=O)[C@H](NC(=O)OC)c3ccccc3)ccc2-c2ccc(NC(=O)[C@@H]3CCCN3C(=O)[C@H](NC(=O)OC)c3ccccc3)cc21 [Example 1, dimethyl ((1R,1′R)-((2S,2′S)-(((9,9-dipropyl-9H-fluorene-2,7-diyl)bis(azanediyl))bis(carbonyl))bis(pyrrolidine-2,1-diyl))bis(2-oxo-1-phenylethane-2,1-diyl))dicarbamate]
EC50 [1]: 1 to 100 nM
EC50 [2]: 1 to 100 nM
EC50 [3]: > 100 nM
EC50 [4]: 0.1 to 1 nM
EC50 [5]: 0.1 to 1 nM
EC50 [6]: 0.01 to 0.1 nM

CCCCC1(CCCC)c2cc(NC(=O)[C@@H]3CCCN3C(=O)[C@H](NC(=O)OC)c3ccccc3)ccc2-c2ccc(NC(=O)[C@@H]3CCCN3C(=O)[C@H](NC(=O)OC)c3ccccc3)cc21 [Example 2, dimethyl ((1R,1′R)-((2S,2′S)-(((9,9-dibutyl-9H-fluorene-2,7-diyl)bis(azanediyl))bis(carbonyl))bis(pyrrolidine-2,1-diyl))bis(2-oxo-1-phenylethane-2,1-diyl))dicarbamate]
EC50 [1]: 1 to 100 nM
EC50 [2]: 0.1 to 1 nM
EC50 [3]: 1 to 100 nM
EC50 [4]: 0.001 to 0.01 nM
EC50 [5]: 0.01 to 0.1 nM
EC50 [6]: 0.001 to 0.01 nM

CCCC1(CCC)c2cc(NC(=O)[C@@H]3CCCN3C(=O)[C@H](NC(=O)OC)c3ccccc3)ccc2-c2ccc(-c3cnc([C@@H]4CCCN4C(=O)[C@@H](NC(=O)OC)C(C)C)[nH]3)cc21 [Example 3, methyl ((S)-1-((S)-2-(5-(9,9-dipropyl-7-((S)-1-((R)-2-((methoxycarbonyl)amino)-2-phenylacetyl)pyrrolidine-2-carboxyamido)-9H-fluorene-2-yl)-1H-imidazole-2-yl)pyrrolidine-1-yl)-3-methyl-1-oxobutane-2-yl)carbamate]
EC50 [1]: 0.01 to 0.1 nM
EC50 [2]: 0.01 to 0.1 nM
EC50 [3]: 1 to 100 nM
EC50 [4]: 0.01 to 0.1 nM
EC50 [5]: 0.01 to 0.1 nM
EC50 [6]: 0.01 to 0.1 nM

COC(=O)N[C@@H](C(=O)N1CCC[C@H]1C(=O)Nc1ccc2c(c1)C(CCCC(F)(F)F)(CCCC(F)(F)F)c1cc(NC(=O)[C@@H]3CCCN3C(=O)[C@H](NC(=O)OC)c3ccccc3)ccc1-2)c1ccccc1 [Example 4, dimethyl ((1R,1′R)-((2S,2′S)-(((9,9-bis(4,4,4-trifluorobutyl)-9H-fluorene-2,7-diyl)bis(azanediyl))bis(carbonyl))bis(pyrrolidine-2,1-diyl))bis(2-oxo-1-phenylethane-2,1-diyl))dicarbamate]
EC50 [1]: 1 to 100 nM
EC50 [2]: > 100 nM
EC50 [3]: 1 to 100 nM
EC50 [4]: 0.1 to 1 nM
EC50 [5]: 0.01 to 0.1 nM
EC50 [6]: 0.001 to 0.01 nM

CCCCC1(CCCC)c2cc(NC(=O)[C@@H]3CC(F)(F)CN3C(=O)[C@H](NC(=O)OC)c3ccccc3)ccc2-c2ccc(NC(=O)[C@@H]3CC(F)(F)CN3C(=O)[C@H](NC(=O)OC)c3ccccc3)cc21 [Example 20, dimethyl ((1R,1′R)-((5S,5′S)-(((9,9-dibutyl-9H-fluorene-2,7-diyl)bis(azanediyl))bis(carbonyl))bis(3,3-difluoropyrrolidine-5,1-diyl))bis(2-oxo-1-phenylethane-2,1-diyl))dicarbamate]
EC50 [1]: 1 to 100 nM
EC50 [2]: 1 to 100 nM
EC50 [4]: 0.01 to 0.1 nM
EC50 [5]: 0.01 to 0.1 nM
EC50 [6]: 0.001 to 0.01 nM

CCCCC1(CCCC)c2cc(NC(=O)[C@@H]3CC(F)(F)CN3C(=O)[C@H](NC(=O)OC)c3ccccc3)ccc2-c2ccc(NC(=O)[C@@H]3CC4(CC4)CN3C(=O)[C@H](NC(=O)OC)c3ccccc3)cc21 [Example 23]
EC50 [2]: 1 to 100 nM
EC50 [3]: > 100 nM
EC50 [4]: 0.001 to 0.01 nM

CCCCC1(CCCC)c2cc(NC(=O)[C@@H]3CC(F)(F)CN3C(=O)[C@H](NC(=O)OC)c3ccccc3)ccc2-c2ccc(NC(=O)[C@@H]3C[C@@H]4CCC[C@@H]4N3C(=O)[C@H](NC(=O)OC)c3ccccc3)cc21 [Example 24]
EC50 [2]: 1 to 100 nM
EC50 [3]: 1 to 100 nM
EC50 [4]: 0.001 to 0.01 nM
